Series [1] addresses T1, Eukaryotic translation initiation factor 2-alpha kinase 3 (Homo sapiens, UniProt Q9NZJ5).
T1 sequence (Q9NZJ5 whole entry): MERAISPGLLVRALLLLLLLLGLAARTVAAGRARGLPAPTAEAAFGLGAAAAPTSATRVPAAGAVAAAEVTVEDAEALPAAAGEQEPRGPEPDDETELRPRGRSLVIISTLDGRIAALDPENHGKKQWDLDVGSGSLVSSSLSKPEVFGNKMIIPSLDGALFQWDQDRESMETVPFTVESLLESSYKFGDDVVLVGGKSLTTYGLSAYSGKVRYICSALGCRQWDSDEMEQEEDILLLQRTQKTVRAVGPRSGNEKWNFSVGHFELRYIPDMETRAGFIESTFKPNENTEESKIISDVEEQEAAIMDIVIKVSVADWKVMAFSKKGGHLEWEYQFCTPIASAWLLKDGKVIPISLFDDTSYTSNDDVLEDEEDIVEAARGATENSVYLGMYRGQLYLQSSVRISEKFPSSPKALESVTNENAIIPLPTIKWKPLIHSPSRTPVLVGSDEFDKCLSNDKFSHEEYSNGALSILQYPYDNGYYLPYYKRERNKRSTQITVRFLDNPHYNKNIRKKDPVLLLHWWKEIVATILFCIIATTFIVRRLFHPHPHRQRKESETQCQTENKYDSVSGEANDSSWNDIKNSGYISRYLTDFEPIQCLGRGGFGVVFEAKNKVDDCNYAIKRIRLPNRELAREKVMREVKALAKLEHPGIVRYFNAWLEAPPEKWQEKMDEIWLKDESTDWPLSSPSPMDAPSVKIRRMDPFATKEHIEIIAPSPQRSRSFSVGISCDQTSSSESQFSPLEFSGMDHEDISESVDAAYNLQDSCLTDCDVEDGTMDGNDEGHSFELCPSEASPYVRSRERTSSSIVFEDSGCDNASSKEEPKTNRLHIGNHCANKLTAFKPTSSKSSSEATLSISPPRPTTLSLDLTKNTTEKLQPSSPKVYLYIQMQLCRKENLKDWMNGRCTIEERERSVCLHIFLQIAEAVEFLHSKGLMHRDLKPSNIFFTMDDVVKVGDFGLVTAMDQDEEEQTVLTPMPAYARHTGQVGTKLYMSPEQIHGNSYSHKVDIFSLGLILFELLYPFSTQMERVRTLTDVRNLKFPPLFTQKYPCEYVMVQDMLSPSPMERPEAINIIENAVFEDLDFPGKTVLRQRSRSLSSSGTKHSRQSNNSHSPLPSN
Description: Counterscreen assay for PERK inhibitors: Dose response cell-based high throughput screening assay to measure inhibition of PERK at 6 hours. [Related pubchem assays: 1522, 1416 ]. The format is functional.

In series [2] the target is T1, Eukaryotic translation initiation factor 2-alpha kinase 3. Description: Dose response cell-based high-throughput screening assay to measure PERK inhibition. [Related pubchem assays: 1416 ]. The format is functional.
For series [3], the target named is Likely tRNA 2'-phosphotransferase (Candida albicans (strain SC5314 / ATCC MYA-2876) (Yeast), UniProt Q5A7N4). The series is described as follows: inhibition of Candida TPT1 enzyme activity – biochemical, fluorescence polarization, dose response (AID 2160). In general terms: In fluorescence polarisation assays a small probe gives low polarisation when free and higher when bound to something large.
Likely tRNA 2'-phosphotransferase, sequence (Q5A7N4 whole entry): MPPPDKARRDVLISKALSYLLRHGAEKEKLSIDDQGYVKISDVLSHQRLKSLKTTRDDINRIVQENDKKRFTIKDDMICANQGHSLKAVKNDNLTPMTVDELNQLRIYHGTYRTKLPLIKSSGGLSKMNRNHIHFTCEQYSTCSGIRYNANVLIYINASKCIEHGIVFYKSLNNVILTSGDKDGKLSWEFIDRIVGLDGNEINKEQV

Series [4] concerns the target T2, Zinc finger protein mex-5 (Caenorhabditis elegans, UniProt Q9XUB2).
T2 sequence (Q9XUB2 whole entry): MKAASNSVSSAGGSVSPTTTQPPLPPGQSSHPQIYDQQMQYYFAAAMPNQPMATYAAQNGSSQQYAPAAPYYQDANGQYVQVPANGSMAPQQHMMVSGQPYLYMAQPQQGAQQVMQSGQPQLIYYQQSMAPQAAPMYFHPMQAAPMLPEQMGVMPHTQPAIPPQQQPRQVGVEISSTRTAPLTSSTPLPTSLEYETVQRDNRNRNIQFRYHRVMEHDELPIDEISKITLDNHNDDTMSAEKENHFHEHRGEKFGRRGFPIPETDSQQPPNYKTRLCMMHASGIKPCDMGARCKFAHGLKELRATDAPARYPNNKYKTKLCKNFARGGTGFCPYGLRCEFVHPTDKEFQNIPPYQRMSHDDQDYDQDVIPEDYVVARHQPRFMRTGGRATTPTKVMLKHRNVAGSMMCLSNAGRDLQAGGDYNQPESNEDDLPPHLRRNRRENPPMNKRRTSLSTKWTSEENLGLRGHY
The series is described as follows: potency of MEX-5 RNA-binding blockers – biochemical, C. elegans, fluorescence polarization, dose response (AID 1960).

The target in series [5] is T3, RNA-binding protein pos-1 (Caenorhabditis elegans, UniProt G5EF15).
T3 sequence (G5EF15 whole entry): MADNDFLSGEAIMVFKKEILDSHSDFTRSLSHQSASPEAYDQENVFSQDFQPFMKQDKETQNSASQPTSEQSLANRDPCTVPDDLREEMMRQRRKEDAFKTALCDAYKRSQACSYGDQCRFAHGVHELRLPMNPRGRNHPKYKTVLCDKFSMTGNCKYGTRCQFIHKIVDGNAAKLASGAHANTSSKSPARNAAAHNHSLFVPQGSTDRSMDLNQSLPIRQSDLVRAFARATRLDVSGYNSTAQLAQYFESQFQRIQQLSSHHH
The series is described as follows: disruptors of C. elegans POS-1 RNA interaction – biochemical, fluorescence polarization, dose response (AID 1964).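 Also: purified POS-1 fused to maltose binding protein made in E. coli; potency of compounds blocking POS-1 binding to fluorescent RNA.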

Series [6] has as its target Guanyl-specific ribonuclease T1 (Aspergillus oryzae (strain ATCC 42149 / RIB 40), UniProt P00651). Description: inhibition of ribonuclease T1 activity – biochemical, fluorescence polarization, 1536-well, counter-screen for TPT1 inhibitor project, dose response (AID 2167).
Series [7] concerns the target T4, Polyadenylate-binding protein 1 (Homo sapiens, UniProt P11940). The series is described as follows: MLLE domain peptide-binding blockers, IC50 – biochemical, fluorescence polarization, FITC-PAM2 peptide, dose response (AID 602259). It is filed as functional. The conditions noted are these: read-out: IC50_Mean.
The target in series [8] is T4, Polyadenylate-binding protein 1. The series is described as follows: MLLE binding blockers, Cy5 peptide tracer – biochemical, fluorescence polarization, Cy5-PAM2 peptide, secondary, miRNA deadenylation inhibitor project, dose response (AID 602260). The format is functional. The conditions noted are these: read-out: IC50_Mean.
The next series deals with Protein Rev (Human immunodeficiency virus type 1 group M subtype B (isolate HXB2)(HIV-1), UniProt P04618). Description: blockers of HIV Rev/RRE RNA complex – biochemical, fluorescence polarization, HIV-1, dose response (AID 434976). Also on record: species or system Human immunodeficiency virus 1.
Protein Rev, sequence (P04618 whole entry): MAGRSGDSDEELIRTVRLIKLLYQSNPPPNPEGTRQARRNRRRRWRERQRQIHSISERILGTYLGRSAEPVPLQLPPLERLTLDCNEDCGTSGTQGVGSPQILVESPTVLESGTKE
The target of series [9] is Female germline-specific tumor suppressor gld-1 (Caenorhabditis elegans, UniProt Q17339). The series is described as follows: blockers of GLD-1/TGE RNA complex formation – biochemical, fluorescence polarization, C. elegans, dose response (AID 2802).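 Also: fluorescence polarization of labeled TGE RNA bound by purified gld-1 protein.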
Female germline-specific tumor suppressor gld-1, sequence (Q17339 whole entry): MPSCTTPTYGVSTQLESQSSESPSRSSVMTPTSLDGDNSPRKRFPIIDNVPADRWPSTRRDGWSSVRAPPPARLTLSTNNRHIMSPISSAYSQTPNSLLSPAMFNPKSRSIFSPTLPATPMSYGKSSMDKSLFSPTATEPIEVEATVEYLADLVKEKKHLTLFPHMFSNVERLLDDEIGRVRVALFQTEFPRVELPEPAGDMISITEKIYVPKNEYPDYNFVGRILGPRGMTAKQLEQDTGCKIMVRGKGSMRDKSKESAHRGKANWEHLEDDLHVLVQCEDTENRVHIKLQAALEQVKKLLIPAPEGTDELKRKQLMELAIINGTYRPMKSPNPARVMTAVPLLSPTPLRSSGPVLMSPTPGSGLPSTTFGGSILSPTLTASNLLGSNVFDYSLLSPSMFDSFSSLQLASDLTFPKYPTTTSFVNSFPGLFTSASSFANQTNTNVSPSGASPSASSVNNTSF
For series [10], the target named is Eukaryotic translation initiation factor 4H (Homo sapiens, UniProt Q15056). Description: eIF4H binding inhibition – biochemical, uHTS, fluorescence polarization, translation initiation inhibitor project, primary screen (AID 2012).
The target of series [11] is T4, Polyadenylate-binding protein 1. The series is described as follows: blockers of PABP interaction with poly(A) – biochemical, fluorescence polarization, […] (AID 2014).
The next series deals with Nonstructural protein 1 (Influenza A virus, UniProt Q194T2). It is filed as functional, Influenza A virus (A/California/07/2009(H1N1)).
Nonstructural protein 1, sequence (Q194T2 whole entry): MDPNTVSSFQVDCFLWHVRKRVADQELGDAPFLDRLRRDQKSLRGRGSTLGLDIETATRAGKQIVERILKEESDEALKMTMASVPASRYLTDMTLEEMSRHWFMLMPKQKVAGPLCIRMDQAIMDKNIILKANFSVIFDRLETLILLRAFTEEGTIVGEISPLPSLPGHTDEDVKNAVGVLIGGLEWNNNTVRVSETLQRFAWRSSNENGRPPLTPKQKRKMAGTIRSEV
Another series has as its target Cytochrome P450 2C19 (Homo sapiens, UniProt P33261). The series is described as follows: Cytochrome panel assay with activity outcomes. Panel member name: p450-cyp2c19 Compounds with AC50 equal or less than 10 uM are considered active. The format is functional.
Series [12] concerns the target T5, Cytochrome P450 2C9 (Homo sapiens, UniProt P11712).
In the next series the target is Bcl-2-like protein 10 (Homo sapiens, UniProt Q9HD36). The series is described as follows: Bcl-B/TR3 peptide binding disruption – biochemical, fluorescence polarization, FITC-TR3 peptide, selectivity assay for Bfl-1 inhibitor project, primary screen (AID 748).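 Also: fluorescence polarization from a fluorescein-labelled TR3 peptide binding purified Bcl-B.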
Bcl-2-like protein 10, sequence (Q9HD36 whole entry): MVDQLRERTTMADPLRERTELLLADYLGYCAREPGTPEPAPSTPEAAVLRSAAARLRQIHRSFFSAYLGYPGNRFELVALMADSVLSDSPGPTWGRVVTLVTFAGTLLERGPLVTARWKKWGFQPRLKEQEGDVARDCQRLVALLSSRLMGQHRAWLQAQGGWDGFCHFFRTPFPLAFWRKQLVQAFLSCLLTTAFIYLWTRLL
The target in series [13] is T5, Cytochrome P450 2C9. The conditions noted are these: Potency.
A short description of series [14]: viability of PTEN-deleted HCT116 cells – cell-based, HCT116 PTEN knockout, dose response (AID 1047).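 Also: HCT116 colon tumor cells with PTEN knocked out; cells exposed to compound for 60 hours before readout; potency for loss of cell viability measured by luminescence.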 It is filed as functional.
The nature of series [15]: viability of HCT116 lacking mutant beta-catenin – cell-based, human colon tumor, dose response (AID 1045).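 Also: HCT116 colon tumor cells with beta catenin knocked out; cells exposed to compound for 60 hours.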 It is filed as functional.
The target of series [16] is DNA dC->dU-editing enzyme APOBEC-3A (Homo sapiens, UniProt P31941). Description: Dose Response confirmation of small molecule APOBEC3A DNA Deaminase Inhibitors via a fluorescence-based single-stranded DNA deaminase assay. [Related pubchem assays (depositor defined):AID493011, AID493024]. The format is functional.
DNA dC->dU-editing enzyme APOBEC-3A, sequence (P31941 whole entry): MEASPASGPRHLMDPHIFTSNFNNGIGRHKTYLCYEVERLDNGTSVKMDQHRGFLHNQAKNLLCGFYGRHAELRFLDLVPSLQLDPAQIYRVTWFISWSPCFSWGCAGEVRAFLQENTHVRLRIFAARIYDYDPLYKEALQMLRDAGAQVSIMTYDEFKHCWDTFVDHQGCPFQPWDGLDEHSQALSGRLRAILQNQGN
For series [17], the target named is DNA dC->dU-editing enzyme APOBEC-3G (Homo sapiens, UniProt Q9HC16). It is filed as functional.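 Also: Dose-response counterscreen measuring inhibition of APOBEC3G DNA deaminase activity, run while confirming APOBEC3A inhibitors.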
DNA dC->dU-editing enzyme APOBEC-3G, sequence (Q9HC16 whole entry): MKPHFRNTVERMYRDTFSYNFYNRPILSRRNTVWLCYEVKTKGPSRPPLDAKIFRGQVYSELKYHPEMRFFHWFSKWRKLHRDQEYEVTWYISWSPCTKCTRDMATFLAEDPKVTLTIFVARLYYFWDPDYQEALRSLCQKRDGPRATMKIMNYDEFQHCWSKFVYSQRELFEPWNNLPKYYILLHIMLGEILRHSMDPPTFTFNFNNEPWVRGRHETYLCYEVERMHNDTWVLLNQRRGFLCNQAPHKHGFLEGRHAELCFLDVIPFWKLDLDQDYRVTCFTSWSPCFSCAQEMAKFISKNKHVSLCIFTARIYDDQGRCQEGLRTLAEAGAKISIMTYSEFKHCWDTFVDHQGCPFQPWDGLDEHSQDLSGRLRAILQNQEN

Activity calls are given as the source filed them. Some results are limits rather than exact numbers.

T4 sequence (P11940 whole entry, the tested form may be a part): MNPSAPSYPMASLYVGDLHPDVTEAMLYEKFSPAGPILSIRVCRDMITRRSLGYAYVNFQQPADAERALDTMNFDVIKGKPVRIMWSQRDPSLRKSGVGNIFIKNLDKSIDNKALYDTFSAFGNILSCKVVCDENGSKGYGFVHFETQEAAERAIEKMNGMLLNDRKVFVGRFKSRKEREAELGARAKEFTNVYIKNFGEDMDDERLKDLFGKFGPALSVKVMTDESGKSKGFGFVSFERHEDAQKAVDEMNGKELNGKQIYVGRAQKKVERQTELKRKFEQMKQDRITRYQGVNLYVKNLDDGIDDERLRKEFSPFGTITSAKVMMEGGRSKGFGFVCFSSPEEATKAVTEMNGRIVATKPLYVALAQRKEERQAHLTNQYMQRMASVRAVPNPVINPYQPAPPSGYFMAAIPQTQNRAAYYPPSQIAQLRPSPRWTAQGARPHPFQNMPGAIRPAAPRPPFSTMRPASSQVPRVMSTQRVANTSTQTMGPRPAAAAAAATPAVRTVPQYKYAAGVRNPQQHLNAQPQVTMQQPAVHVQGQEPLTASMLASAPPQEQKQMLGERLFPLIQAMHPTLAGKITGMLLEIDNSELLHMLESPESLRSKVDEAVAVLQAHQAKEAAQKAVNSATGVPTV
T5 sequence (P11712 whole entry): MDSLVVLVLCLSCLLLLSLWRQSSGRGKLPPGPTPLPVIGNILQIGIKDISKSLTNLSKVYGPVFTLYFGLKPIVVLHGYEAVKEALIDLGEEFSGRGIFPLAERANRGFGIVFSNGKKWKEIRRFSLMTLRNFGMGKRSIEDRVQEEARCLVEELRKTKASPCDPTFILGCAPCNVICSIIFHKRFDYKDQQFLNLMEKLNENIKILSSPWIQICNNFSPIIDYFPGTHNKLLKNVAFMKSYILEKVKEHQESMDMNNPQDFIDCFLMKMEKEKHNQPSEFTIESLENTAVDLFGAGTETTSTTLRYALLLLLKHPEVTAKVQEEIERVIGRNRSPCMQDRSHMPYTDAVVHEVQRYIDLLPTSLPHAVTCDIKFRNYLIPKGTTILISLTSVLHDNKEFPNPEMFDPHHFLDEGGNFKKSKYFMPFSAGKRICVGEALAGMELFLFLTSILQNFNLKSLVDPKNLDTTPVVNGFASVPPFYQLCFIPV
Cytochrome P450 2C19, sequence (P33261 whole entry): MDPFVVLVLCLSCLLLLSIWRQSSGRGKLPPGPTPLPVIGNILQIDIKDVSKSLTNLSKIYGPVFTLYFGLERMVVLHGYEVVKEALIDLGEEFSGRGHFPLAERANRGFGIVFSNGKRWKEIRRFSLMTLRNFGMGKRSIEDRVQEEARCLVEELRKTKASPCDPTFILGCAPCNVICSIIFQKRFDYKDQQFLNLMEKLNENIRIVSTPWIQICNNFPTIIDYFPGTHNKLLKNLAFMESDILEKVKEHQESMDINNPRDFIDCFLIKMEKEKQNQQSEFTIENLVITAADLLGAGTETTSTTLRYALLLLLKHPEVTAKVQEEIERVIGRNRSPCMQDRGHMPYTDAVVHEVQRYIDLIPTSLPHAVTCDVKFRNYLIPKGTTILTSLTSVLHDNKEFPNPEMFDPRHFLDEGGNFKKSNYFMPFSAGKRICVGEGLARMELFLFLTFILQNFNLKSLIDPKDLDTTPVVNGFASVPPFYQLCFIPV
Guanyl-specific ribonuclease T1, sequence (P00651 whole entry, the tested form may be a part): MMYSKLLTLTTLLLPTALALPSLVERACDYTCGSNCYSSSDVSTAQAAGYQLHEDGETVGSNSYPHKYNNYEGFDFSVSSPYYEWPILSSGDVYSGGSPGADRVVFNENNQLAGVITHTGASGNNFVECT

In general, EC50 refers to the concentration needed to bring the measured effect to its halfway point. On to `Cc1ccccc1NC(=O)NCCCN1CCCC1`, for which the EC50 in series [1] and in series [2] was > 55.7 µM (not active) in each case.
As for `CCOc1cc(/C=C2\C(=O)NC(=O)N(CCc3ccc(F)cc3)C2=O)ccc1O`, the values for the IC50 in series [3] and in series [6] were > 55.7 µM (not active) and 28 µM (not active), respectively. The EC50 in series [4] and in [5] was > 300 µM (not active) in each case.
Consider `CN(C(=O)CN1C(=O)c2cccc(N)c2C1=O)C1CCCCC1`, for which the IC50 in series [7] was 32.6 µM (inactive); in [8], > 66 µM (inactive); on Protein Rev, > 8.39 µM (active); in [9], 4.29 µM (active).
For `Cc1ccc[n+](CC(=O)c2ccccc2)c1`, the IC50 in series [10] was > 100 µM (inactive); in [11] it was 5.7 µM (active).
In general, AC50 refers to the concentration at which the activity in the assay is half-maximal. In the case of `O=C(Cn1cnc([N+](=O)[O-])n1)N/N=C/c1ccccc1O`, at Nonstructural protein 1, the IC50 is 9.05 µM (active). Further, the values for the AC50 result at Cytochrome P450 2C19 and on Cytochrome P450 2C9 [12] were “inconclusive” and 10 µM (inconclusive), respectively. In addition, the EC50 in series [1] and in series [2] was > 55.7 µM (not active) in each case.
As to `O=C(COC(=O)CC12CC3CC(CC(C3)C1)C2)Nc1ncc(Cl)cc1Cl`, the IC50 on Bcl-2-like protein 10 is 40.2 µM (active).
For `CC(C)[C@@H](CC(=O)N[C@@H]1CCNC[C@H]1C(=O)N[C@H](CC(=O)N[C@@H](CCC(=O)O)CC(=O)O)Cc1c[nH]c2ccccc12)NC(=O)C[C@H](CO)NC(=O)[C@@H]1CNCC[C@H]1N`, the concentration at half-maximal activity (AC50) on Cytochrome P450 2C9 [13] was 39.8 µM (inconclusive).
In the case of `COc1ccc(-c2coc3c(CN4CCCCC4)c(O)c(CN4CCCCC4)c(O)c3c2=O)cc1`, the EC50 was 34.4 µM (active) in series [14] and 32.6 µM (active) in series [15]. The IC50 at Bcl-2-like protein 10 was 79.7 µM (inactive).
`C[N+]1(CC(O)c2ccccc2)CCCCCC1` (stereo unspecified): the IC50 in series [16] is 2.71 µM (active); in series [10], 60.9 µM (active); in series [17] it was 4.26 µM (active); in series [11], 5.42 µM (active).
